The target of data set [1] is T1, glycine transporter-1 (GlyT-1) (Homo sapiens, UniProt P48067).
T1 construct: JAR cells (ATCC#HTB-144), which endogenously express GlyT-1; host or cells: JAR human choriocarcinoma cells
T1 sequence (P48067 1-706): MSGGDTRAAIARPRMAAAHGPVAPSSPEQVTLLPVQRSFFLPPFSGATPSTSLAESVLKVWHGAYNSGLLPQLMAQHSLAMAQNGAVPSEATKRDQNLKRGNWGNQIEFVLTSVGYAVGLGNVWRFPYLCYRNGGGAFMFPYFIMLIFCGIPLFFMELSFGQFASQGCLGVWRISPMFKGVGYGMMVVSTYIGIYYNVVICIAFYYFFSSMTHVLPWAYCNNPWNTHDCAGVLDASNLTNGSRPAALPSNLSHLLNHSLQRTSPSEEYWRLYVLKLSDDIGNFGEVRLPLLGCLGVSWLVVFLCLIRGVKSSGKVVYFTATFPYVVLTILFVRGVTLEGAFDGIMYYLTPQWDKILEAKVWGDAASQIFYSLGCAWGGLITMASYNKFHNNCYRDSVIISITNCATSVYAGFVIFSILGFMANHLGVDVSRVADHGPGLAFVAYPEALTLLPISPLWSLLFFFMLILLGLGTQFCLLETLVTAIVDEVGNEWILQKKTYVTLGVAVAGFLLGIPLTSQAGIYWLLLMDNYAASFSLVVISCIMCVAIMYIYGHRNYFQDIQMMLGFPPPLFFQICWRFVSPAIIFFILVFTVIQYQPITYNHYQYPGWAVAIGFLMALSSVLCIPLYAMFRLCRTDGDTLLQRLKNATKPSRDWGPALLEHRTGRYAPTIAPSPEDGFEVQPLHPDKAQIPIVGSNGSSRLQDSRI
The data set can be described thus: [14C]glycine uptake assay in JAR cells endogenously expressing GlyT-1 (scintillation proximity). To be noted: JAR cells, [14C]glycine 5 μM, 3 hour incubation; read-out: GlyT-1 IC50. In kind it is cell-based. The essentials:
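IC50 comes from a four-parameter fit of nine-point, duplicate curves measuring inhibition of 5 μM [14C]glycine uptake, read by scintillation proximity after 3 h at 37 °C. Cells are human JAR, which express GlyT-1 endogenously, given 10 min compound pre-treatment in pH 7.4 buffer with 5 mM alanine and 0.75% DMSO.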
For orientation: SPA uses beads or plates that emit light when radiolabelled molecules are held near them.

The test system of data set [2] is cerebrospinal fluid (CSF) glycine levels. The data set can be described thus: CSF-glycine assay after oral administration. In kind it is in vivo. Conditions: Rattus norvegicus, po, rats, read-out: % CSF Glycine Increase versus Vehicle Control. On the procedure:
This study measured cerebrospinal fluid (CSF) glycine levels after oral administration of test compound. […] After the specified pretreatment time, the rats were euthanized by CO2 asphyxiation and a hypodermic needle was inserted into the cisterna magna to withdraw 50-100 μl of CSF. The CSF was diluted with deuterated-glycine as an internal standard glycine was quantified by LC/MS/MS.

Data set [3] concerns the target T2, glycine transporter-2 (GlyT-2) (Homo sapiens, UniProt Q9Y345).
T2 construct: expressed in transfected cells
T2 sequence (Q9Y345 1-797): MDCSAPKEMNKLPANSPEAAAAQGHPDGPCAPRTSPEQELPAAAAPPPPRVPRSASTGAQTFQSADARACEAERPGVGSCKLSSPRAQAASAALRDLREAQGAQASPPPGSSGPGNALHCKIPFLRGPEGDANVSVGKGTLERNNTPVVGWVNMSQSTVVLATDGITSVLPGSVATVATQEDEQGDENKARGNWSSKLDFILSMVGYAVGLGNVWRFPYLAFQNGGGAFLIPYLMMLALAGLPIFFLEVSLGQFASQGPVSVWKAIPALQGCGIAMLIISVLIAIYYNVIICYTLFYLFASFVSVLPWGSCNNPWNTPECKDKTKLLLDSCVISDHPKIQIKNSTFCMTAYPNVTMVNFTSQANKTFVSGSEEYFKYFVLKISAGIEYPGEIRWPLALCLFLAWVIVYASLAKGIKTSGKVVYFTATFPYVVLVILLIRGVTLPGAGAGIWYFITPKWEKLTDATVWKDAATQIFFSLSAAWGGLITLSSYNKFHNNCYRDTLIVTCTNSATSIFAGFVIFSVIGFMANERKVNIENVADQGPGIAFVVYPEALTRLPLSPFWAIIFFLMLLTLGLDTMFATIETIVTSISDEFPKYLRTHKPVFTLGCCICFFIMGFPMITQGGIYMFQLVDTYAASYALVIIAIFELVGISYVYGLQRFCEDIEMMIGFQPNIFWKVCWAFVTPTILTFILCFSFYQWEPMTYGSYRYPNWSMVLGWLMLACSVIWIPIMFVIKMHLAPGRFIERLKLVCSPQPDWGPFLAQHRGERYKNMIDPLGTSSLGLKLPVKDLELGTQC
The data set can be described thus: [14C]glycine uptake assay in HEK-GlyT-2 transfected cells. In kind it is cell-based. To be noted: HEK-GlyT-2 cells.

This is an account of results in US9045445B2, “Glycine transporter-1 inhibitors, methods of making them, and uses thereof” (Albany Molecular Research, Inc., priority 2010, dated 2015).

A word on the melting point: it is the temperature of the solid-liquid transition. Usually IC50 stands for the concentration at which inhibition is half-maximal.

Counter-ions that a name gives are not always drawn. Like-named read-outs stand apart in the source and are kept apart here. Bounds are passed on as bounds.

In the case of `Cl.Cn1cnc(S(=O)(=O)N2CCN(C3(CNC(=O)c4ccc(C(F)(F)F)cc4Cl)CCC(F)(F)CC3)CC2)n1` [compound 281, 2-Chloro-N-((4,4-difluoro-1-(4-(1-methyl-1H-1,2,4-triazol-3-ylsulfonyl)piperazin-1-yl)cyclohexyl)methyl)-4-(trifluoromethyl)benzamide Hydrochloride], the melting point fell in the range of 180 to 185 °C. The IC50 in data set [1] is 0.284 µM.
In turn, `CC(O)CS(=O)(=O)N1CCN(C2(CNC(=O)c3ccc(C(F)(F)F)cc3Cl)CCC(F)(F)CC2)CC1.Cl` (single isomer, unassigned; enantiomer a) [compound 278, (Enantiomer A)-2-Chloro-N-((4,4-difluoro-1-(4-(2-hydroxypropylsulfonyl)piperazin-1-yl)cyclohexyl)methyl)-4-(trifluoromethyl) benzamide Hydrochloride] had a melting point of 80 to 82 °C. In addition, the IC50 in data set [1] came out at 0.024 µM.
The corresponding values for `Cl.Cn1cc(S(=O)(=O)N2CCN(C3(CNC(=O)c4ccc(C(F)(F)F)cc4Cl)CCOCC3)CC2)nn1` [compound 277, 2-Chloro-N-((4-(4-(1-methyl-1H-1,2,3-triazol-4-ylsulfonyl)piperazin-1-yl)tetrahydro-2H-pyran-4-yl)methyl)-4-(trifluoromethyl)benzamide Hydrochloride] are 147 °C and 0.008 µM.
As to `CC(NC(=O)c1ccc(C(F)(F)F)cc1C(F)(F)F)C1(N2CCN(S(=O)(=O)c3cn(C)nn3)CC2)CCC(F)(F)CC1` (stereo not shown) [compound 226, N-(1-(4,4-Difluoro-1-(4-(1-methyl-1H-1,2,3-triazol-4-ylsulfonyl)piperazin-1-yl)cyclohexyl)ethyl)-2,4-bis(trifluoromethyl) benzamide Hydrochloride], the IC50 in data set [1] was 0.001 µM; in data set [3], greater than 75 µM. Besides, the change in vivo at 3 mg/kg in data set [2] (2 h, pretreatment 120 mins) was 243%; in data set [2] (6 h, pretreatment 360 mins), 227%. In addition, the change in vivo at 10 mg/kg in data set [2] (2 h, pretreatment 120 mins) came to 344%; in data set [2] (6 h, pretreatment 360 mins), 339%.
On to `Cn1cc(S(=O)(=O)N2CCN(C3(CNC(=O)c4c(F)cccc4F)CCC(F)(F)CC3)CC2)nn1` [compound 189, N-((4,4-Difluoro-1-(4-(1-melhyl-1H-1,2,3-triazol-4-ylsulfonyl)piperazin-1-yl)cyclohexyl)methyl)-2,6-difluorobenzamide Hydrochloride], for which the IC50 in data set [1] stood at 0.005 µM. Further, in data set [2] (0.5 h, pretreatment 30 mins), the change in vivo at 10 mg/kg turned out to be 158%, the change in vivo at 30 mg/kg came out at 219% and the change in vivo at 100 mg/kg turned out to be 281%. Further, in data set [2] (2 h, pretreatment 120 mins), the change in vivo at 10 mg/kg is 203%, the change in vivo at 30 mg/kg is 270% and the change in vivo at 100 mg/kg was 288%. The same compound displayed an IC50 in data set [3] greater than 75 µM.
Consider `CCCS(=O)(=O)N1CCN(C2(CNC(=O)c3c(F)cccc3F)CCC(F)(F)CC2)CC1` [compound 130, N-((4,4-Difluoro-1-(4-(propylsulfonyl)piperazin-1-yl)cyclohexyl)methyl)-2,6-difluorobenzamide Hydrochloride], for which the IC50 in data set [1] was determined as 0.067 µM. In data set [2] (0.5 h, pretreatment 30 mins), the change in vivo at 10 mg/kg came to 148%, the change in vivo at 30 mg/kg worked out at 185% and the change in vivo at 75 mg/kg was 201%. In addition, in data set [2] (2 h, pretreatment 120 mins), the change in vivo at 10 mg/kg was 123%, the change in vivo at 30 mg/kg was 125% and the change in vivo at 75 mg/kg was found to be 201%. Also, in data set [3], the IC50 was greater than 75 µM.
Regarding `CC(=O)CS(=O)(=O)N1CCN(C2(CNC(=O)c3ccc(C(F)(F)F)cc3Cl)CCC(F)(F)CC2)CC1` (as salt: hydrochloride) [compound 280, 2-Chloro-N-((4,4-difluoro-1-(4-(2-oxopropylsulfonyl)piper-azin-1-yl)cyclohexyl)methyl)-4-(trifluoromethyl) benzamide Hydrochloride], the melting point lay within 65 to 67 °C.
`Cn1cc(S(=O)(=O)N2CCN(C3(CNC(=O)c4ccc(C(F)(F)F)cc4Cl)CCC(F)(F)CC3)CC2)nn1` [compound 193, 2-Chloro-N-((4,4-difluoro-1-(4-(1-methyl-1H-1,2,3-triazol-4-ylsulfonyl)piperazin-1-yl)cyclohexyl)methyl)-4-(trifluoromethyl)benzamide Hydrochloride]: the IC50 in data set [1] was 0.001 µM; in data set [3] it was greater than 75 µM. Further, the change in vivo at 10 mg/kg came to 282% in data set [2] (2 h, pretreatment 120 mins) and 303% in data set [2] (6 h, pretreatment 360 mins). The change in vivo at 30 mg/kg stood at 279% in data set [2] (2 h, pretreatment 120 mins) and 355% in data set [2] (6 h, pretreatment 360 mins).
With `CC(NC(=O)c1ccc(C(F)(F)F)cc1Cl)C1(N2CCN(S(=O)(=O)c3cn(C)nn3)CC2)CCC(F)(F)CC1` (stereo not shown) [compound 224, 2-Chloro-N-(1-(4,4-difluoro-1-(4-(1-methyl-1H-1,2,3-triazol-4-ylsulfonyl)piperazin-1-yl)cyclohexyl)ethyl)-4-(trifluoromethyl)benzamide Hydrochloride], in data set [1], the IC50 amounted to 0.001 µM. Also, in data set [2] (2 h, pretreatment 120 mins), the change in vivo at 3 mg/kg amounted to 186% and the change in vivo at 10 mg/kg was found to be 347%. The IC50 in data set [3] was greater than 75 µM.
The compound `Cn1cc(S(=O)(=O)N2CCN(C3(CNC(=O)c4ccc(C(F)(F)F)cc4C(F)(F)F)CCOCC3)CC2)nn1` (as salt: hydrochloride) [compound 276, N-((4-(4-(1-Methyl-1H-1,2,3-triazol-4-ylsulfonyl)piperazin-1-yl)tetrahydro-2H-pyran-4-yl)methyl)-2,4-bis(trifluoromethyl) benzamide Hydrochloride] showed a melting point of 145 °C.
